PMC3024946, “Hydroxyproline-containing collagen analogs trigger the release and activation of collagen-sequestered proMMP-2 by competition with prodomain-derived peptide P33-42” (Fibrogenesis & Tissue Repair, 2011)
“Also recorded” adds a separate entry of the source.

Legend:
actMMP-2 / CI [1] = molecular target: T1, actMMP-2 / CI (Homo sapiens, UniProt P08253); assay: SPR, competition of actMMP-2 binding to CI, nonactivating buffer
T1 construct: purchased Invitek
T1 sequence (P08253 110-660): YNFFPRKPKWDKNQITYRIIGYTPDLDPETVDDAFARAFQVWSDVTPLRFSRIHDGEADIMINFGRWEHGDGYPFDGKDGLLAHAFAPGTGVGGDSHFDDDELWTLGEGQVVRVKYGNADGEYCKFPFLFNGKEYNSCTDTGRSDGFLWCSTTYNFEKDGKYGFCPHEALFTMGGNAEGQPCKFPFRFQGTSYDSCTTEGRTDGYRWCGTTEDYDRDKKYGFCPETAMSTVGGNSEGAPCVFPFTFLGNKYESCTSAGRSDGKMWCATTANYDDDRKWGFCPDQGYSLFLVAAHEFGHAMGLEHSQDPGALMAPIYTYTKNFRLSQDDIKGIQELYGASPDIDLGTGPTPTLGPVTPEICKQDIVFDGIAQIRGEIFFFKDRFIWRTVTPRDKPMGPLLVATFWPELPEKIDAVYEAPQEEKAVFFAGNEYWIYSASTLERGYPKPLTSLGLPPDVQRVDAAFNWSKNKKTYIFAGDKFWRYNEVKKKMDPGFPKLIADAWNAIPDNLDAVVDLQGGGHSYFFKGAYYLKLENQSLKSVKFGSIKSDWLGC
Procedure: (§1) Sensor chip preparations and SPR measurements were performed using a BiacoreX device and the Bia-evaluation software (version 3.2; Biacore, Uppsala, Sweden). The pepsin-resistant triple-helical part of human fibrillar CI (100 μg/ml) in 10 mM acetate coupling buffer, pH 4.8, was immobilized to a dextran matrix-sensor chip at a flow rate of 5 μl/min, resulting in 5,500 resonance units from CI covalently linked via its primary amino groups. The control flow cell was prepared using the coupling buffer without CI. Surfaces were activated and blocked as described previously. […] The effects of (GPO)10, GAP, (POG)5, (GPP)10 and P33-42 on MMP-2 and MMP-9 binding to CI and their enzymatic activity were determined by adding the binding competitors to the (pro- and act)MMP-2 and MMP-9 solution in 10- to 150-fold molar excesses. Effects independent of MMP-2 and MMP-9 activity were monitored in the presence of Ro 28-2653 (1 μM) during SPR analysis. […] Kinetic parameters were analyzed using the 1:1 binding model with drifting baseline and subtraction of the control flow cell binding from sensorgrams obtained with immobilized CI. Binding constants (Kd) were calculated from the association (ka) and dissociation rates (kd) obtained from individual binding curves at different concentrations. […]

proMMP-9 / CI [2] = molecular target: T2, proMMP-9 / CI (Homo sapiens, UniProt P14780); assay: SPR, competition of proMMP-9 binding to CI, nonactivating buffer
T2 construct: prodomain-containing proMMP-2 or proMMP-9; purchased Invitek
T2 sequence (P14780 20-707 limits assumed): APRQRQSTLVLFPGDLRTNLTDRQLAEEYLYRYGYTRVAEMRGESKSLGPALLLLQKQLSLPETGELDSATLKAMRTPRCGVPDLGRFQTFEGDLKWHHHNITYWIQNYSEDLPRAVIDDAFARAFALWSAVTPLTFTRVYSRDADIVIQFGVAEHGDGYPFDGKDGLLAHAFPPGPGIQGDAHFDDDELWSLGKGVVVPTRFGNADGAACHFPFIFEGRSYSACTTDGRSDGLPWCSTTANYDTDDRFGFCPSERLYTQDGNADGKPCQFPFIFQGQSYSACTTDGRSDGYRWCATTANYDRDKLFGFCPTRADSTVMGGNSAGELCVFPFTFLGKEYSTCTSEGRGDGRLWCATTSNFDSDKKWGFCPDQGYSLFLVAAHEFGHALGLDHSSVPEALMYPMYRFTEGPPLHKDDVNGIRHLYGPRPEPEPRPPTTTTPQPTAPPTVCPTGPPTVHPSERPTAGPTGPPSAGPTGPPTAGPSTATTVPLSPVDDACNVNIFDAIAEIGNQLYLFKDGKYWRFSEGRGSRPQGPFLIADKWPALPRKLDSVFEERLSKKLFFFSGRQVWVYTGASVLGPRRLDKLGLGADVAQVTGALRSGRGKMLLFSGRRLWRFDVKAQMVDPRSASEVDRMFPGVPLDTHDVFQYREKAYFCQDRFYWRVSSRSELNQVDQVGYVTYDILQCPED
Procedure: as §1

proMMP-9 / CI [3] = molecular target: T2, proMMP-9 / CI; assay: SPR, competition of proMMP-9 binding to CI, MMP activity buffer; settings: proMMP-9 (25-150 nM), 10-fold molar excess
Procedure: as §1

actMMP-2 / CI [4] = molecular target: T1, actMMP-2 / CI; assay: SPR, competition of actMMP-2 binding to CI, MMP activity buffer with Ro 28-2653; settings: actMMP-2 100 nM, 1 μM Ro 28-2653, 25°C, mean ± SD, at least three experiments
Procedure: as §1

ProMMP-2 [5] = assay: Fluorogenic short-substrate assay, activation of proMMP-2; type: biochemical, human; settings: 10-fold excess; 50 ng proMMP-2; 800 nM MCA-Pro-Leu-Gly-Leu-Dnp-Dap-Ala-Arg-NH2; 37°C; on BSA or CI
Procedure: Enzymatic activities of MMPs were studied spectrofluorimetrically by cleavage of fluorogenic substrates in MMP activity buffer within 2 to 5 h. For gelatinases 800 nM MCA-Pro-Leu-Gly-Leu-Dnp-Dap-Ala-Arg-NH2 (λex/em 328/393 nm; Bachem, Bubendorf, Switzerland) or 10 μg/ml DQ-gelatine were used, according to the method described by Knight et al. for collagenases 800 nM MCA-Pro-Cha-Gly-Nva-His-Ala-Dpa-NH2 (λex/em 280/360 nm; Anaspec, San José, CA, USA). In some experiments, proMMP-2 was fully activated in the presence of 1 mM APMA prior to the kinetic measurements. A quantity of 50 ng pro- or actMMP-2 alone or mixed with 10- to 150-fold molar excesses of (GPO)10, GAP, P33-42 or mixtures of (GPO)10 and P33-42, were added to CI-coated, BSA-coated (1 μg/well both) or uncoated wells containing 150 μl of the respective substrate solution. The peptide P33-42 was purchased from the Institute of Biochemistry (Humboldt-University, Berlin, Germany). The influence of CI on MMP-2 enzymatic activity against the quenched fluorescent substrate could be excluded. Background subtraction (measurement without MMPs) was applied to all curves. All experiments were performed with a fluorescence microplate reader (Molecular Devices, Sunnyvale, CA, USA) and black 96-well microtiter plates with a clear bottom (Greiner bio-one, Frickenhausen, Germany).

ProMMP-2 [6] = assay: Substrate gel zymography of treated proMMP-2; type: biochemical, human; settings: 50 ng proMMP-2, 2-h incubation at room temperature
Procedure: Samples containing MMP-2 were diluted with zymogram sample buffer (Bio-Rad, Munich, Germany) and separated on homogeneous 10% SDS-PAGE gels containing 1 mg/ml (wt/vol) gelatine (Bio-Rad), washed with excess MMP activity buffer containing 2.5% (vol/vol) Triton X-100 to remove SDS, and incubated with MMP activity buffer for 24 h. Gels were stained with Coomassie Blue R-250. Gels showing proteolytic bands corresponding to proMMP-2 (72 kDa) or actMMP-2 (62 kDa) were scanned (Plustek, Norderstedt, Germany) and analyzed from inverted grayscale images.

- Off rate (actMMP-2 / CI [1]; actMMP-2 (100 nM) binding to CI with 10× (GPO)10, PBS, 0.05% Tween 20): 0.56 s⁻¹
- effect on binding to CI (actMMP-2 / CI [1]; actMMP-2, 10-fold molar excess): only slightly impaired
- Off rate (proMMP-9 / CI [2]; proMMP-9 (100 nM) binding to CI with 10× (GPO)10, PBS, 0.05% Tween 20): 0.22 s⁻¹
- effect on binding to CI (proMMP-9 / CI [2]; proMMP-9, 10-fold molar excess): more pronounced effects
- effect on binding to CI (proMMP-9 / CI [3]): abolished binding of proMMP-9 to CI
- Kd for binding to CI in the presence of 10-fold molar excess of competitor (actMMP-2 / CI [4]): 2,710.0 ± 90.0 nM
Substance: H-Gly-Cys-Hyp-(Gly-Pro-Hyp)10-Gly-Cys-Hyp-Gly-NH2 [(GPO)10, triple-helical Hyp-containing collagen analog]
- activation of proMMP-2 (ProMMP-2 [5]): resulted in the same plateau activity as actMMP-2 without (GPO)10
- substrate zymography, prodomain-free actMMP-2 band (ProMMP-2 [6]): faint band of prodomain-free actMMP-2; also recorded: not accompanied by strong prodomain cleavage
